Reference: paper PMC5971037, “Synthesis and evaluation of antimicrobial, antitubercular and anticancer activities of 2-(1-benzoyl-1H-benzo[d]imidazol-2-ylthio)-N-substituted acetamides” (Chemistry Central Journal, 2018)
Converted amounts (≈) assume the structure as drawn. Read-outs that look alike come from different tables or passages of the source.

Assays:
E. coli [1] = assay: MBC by subculturing; type: cell-based; details: Escherichia coli
Procedure: (§1) The minimum bactericidal concentration (MBC) and minimum fungicidal concentration (MFC) of the synthesized benzimidazole derivatives was determined by subculturing 100 µl of culture from each tube that remained clear in MIC determination onto sterilized petri-plates containing fresh agar medium. The petri-plates were incubated and analyzed for microbial growth visually.

B. subtilis [2] = assay: MBC by subculturing; type: cell-based
Procedure: as §1

S. aureus [3] = assay: MBC by subculturing; type: cell-based; details: Staphylococcus aureus
Procedure: as §1

S. typhi [4] = assay: MBC by subculturing; type: cell-based; details: Salmonella enterica, read-out: MBC S. typhi
Procedure: as §1

B. cereus [5] = assay: MBC by subculturing; type: cell-based
Procedure: as §1

B. subtilis [6] = assay: Tube dilution MIC; details: Bacillus subtilis, 24 h, read-out: MIC B. subtilis
E. coli [7] = assay: Tube dilution MIC; details: Escherichia coli, 24 h, read-out: MIC E. coli
[8] = In vivo LD50, ED50 and toxic dose in mice models; details: mouse, dose that killed 50% of the mice population within the group
Procedure: The LD50 and ED50 were determined for the active compounds in mice models infected with Mycobacterium H37Rv (Table 4). […] Thus, ED50 of 1.34 mg/kg was considered safe for each of the compounds. It was observed that this dose was effective and safe for mice in different groups before infecting the mice models with specific TB bacteria as no mortality of any single animal was recorded.
The LD50 (lethal dose) and ED50 (optimum/effective dose) doses were determined for the active compounds in mice models infected with Mycobacterium H37Rv via ethical permission no., NCFT/EC/16/2313 assigned to Collaborative Research Group (CRG), NCFT, New Delhi, India.

C. albicans [9] = assay: microbe, parasite or virus in culture; details: Candida albicans, 48 h, read-out: MIC C. albicans
A. niger [10] = assay: MFC by subculturing; type: cell-based
Procedure: as §1

C. albicans [11] = assay: MFC by subculturing; type: cell-based
Procedure: as §1

S. aureus [12] = assay: Tube dilution MIC; details: Staphylococcus aureus, 24 h, read-out: MIC S. aureus
[13] = target: mycobacterial isocitrate lyase (Mycobacterium tuberculosis, UniProt P9WKK7); assay: Mycobacterial isocitrate lyase (ICL) assay; type: biochemical, M. tuberculosis H37Rv; details: read-out: Percent inhibition of enzyme, M. ICL activity
Procedure: The compounds found potent in in vivo evaluation were assayed for inhibition of mycobacterial enzymes viz., isocitrate lyase, pantothenate synthetase and chorismate mutase.
Isocitrate lyase activity was assayed according to the protocol reported by Dixon and Kornberg (glyoxylate phenyl hydrazone formation) at 10 μM of the compounds.

B. cereus [14] = assay: Tube dilution MIC; details: Bacillus cereus, 24 h, read-out: MIC B. cereus
S. typhi [15] = assay: Tube dilution MIC; type: cell-based; details: Salmonella enterica, 24 h, read-out: MIC S. typhi
M. tuberculosis H37Rv [16] = assay: MIC by microplate alamar blue assay; type: cell-based; details: Mycobacterium tuberculosis, NA = no activity, read-out: MIC against M. tuberculosis H37Rv
[17] = system: M. tuberculosis H37Rv (NCFT/TB/537); assay: Well diffusion susceptibility test (zone of inhibition); type: cell-based; details: Mycobacterium tuberculosis, 672 h, read-out: Diameter of zone of inhibition against H37Rv (NCFT/TB/537), wells of 8 mm, 50 µg/ml test compound, 25 µg/ml standard drug, 4 weeks, NA = no activity
A. niger [18] = assay: microbe, parasite or virus in culture; details: Aspergillus niger, 168 h, read-out: MIC A. niger
M. tuberculosis H37Rv [19] = assay: Minimum lethal concentration (MLC); type: cell-based; details: Mycobacterium tuberculosis, NA = no activity, read-out: MLC against M. tuberculosis H37Rv
[20] = Bacillus subtilis, read-out: MBC B. subtilis
[21] = Bacillus cereus, read-out: MBC B. cereus
[22] = Aspergillus niger, read-out: MFC A. niger
[23] = Candida albicans, read-out: MFC C. albicans
[24] = Bacillus subtilis; read-out: MBC B. subtilis
[25] = Bacillus cereus; read-out: MBC B. cereus
[26] = Aspergillus niger; read-out: MFC A. niger
[27] = Candida albicans; read-out: MFC C. albicans

Sequence of mycobacterial isocitrate lyase (P9WKK7 whole entry): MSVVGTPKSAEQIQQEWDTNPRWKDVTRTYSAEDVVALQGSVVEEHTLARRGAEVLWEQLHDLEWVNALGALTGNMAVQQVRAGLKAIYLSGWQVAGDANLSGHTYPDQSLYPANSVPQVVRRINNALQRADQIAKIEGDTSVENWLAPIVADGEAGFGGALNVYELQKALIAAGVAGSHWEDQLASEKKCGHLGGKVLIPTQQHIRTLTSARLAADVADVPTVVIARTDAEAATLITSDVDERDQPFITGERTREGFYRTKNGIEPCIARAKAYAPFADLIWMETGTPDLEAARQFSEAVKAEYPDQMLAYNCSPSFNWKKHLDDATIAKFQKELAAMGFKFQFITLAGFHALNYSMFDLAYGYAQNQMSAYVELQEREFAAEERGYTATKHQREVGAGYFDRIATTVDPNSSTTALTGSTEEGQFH

| SMILES | MBC (E. coli [1]) | MBC (S. aureus [3]) | MBC (S. typhi [4]) | MIC (B. subtilis [6]) | MIC (E. coli [7]) | MIC (C. albicans [9]) | MIC (S. aureus [12]) | inhibition at 10 µM [13] | MIC (B. cereus [14]) | MIC (S. typhi [15]) | MIC (M. tuberculosis H37Rv [16]) | zone of inhibition at 50 µg/mL [17] | MIC (A. niger [18]) | MBC (M. tuberculosis H37Rv [19]) | other results |
| --- | --- | --- | --- | --- | --- | --- | --- | --- | --- | --- | --- | --- | --- | --- | --- |
| COc1ccccc1NC(=O)CSc1nc2ccccc2n1C(=O)c1ccccc1 [Compound 17, 2-(1-Benzoyl-1H-benzo[d]imidazol-2-ylthio)-N-(2-methoxyphenyl)acetamide] | > 50 µg/mL | 50 µg/mL (≈ 120 µM) | > 50 µg/mL | 30 µM (≈ 12.5 µg/mL) | 30 µM (≈ 12.5 µg/mL) | 15 µM (≈ 6.26 µg/mL) | 30 µM (≈ 12.5 µg/mL) | 43.5% | 30 µM (≈ 12.5 µg/mL) | 30 µM (≈ 12.5 µg/mL) | 12.5 µg/mL (≈ 29.9 µM) | > 20 mm | 30 µM (≈ 12.5 µg/mL) | 25 µg/mL (≈ 59.9 µM) | MBC (B. subtilis [2]; [20]): > 50 µg/mL; MBC (B. cereus [5]; [21]): > 50 µg/mL; LD50 [8]: 3.17 mg/kg; MFC (A. niger [10]; [22]): > 50 µg/mL; MFC (C. albicans [11]; [23]): 50 µg/mL (≈ 120 µM) |
| COc1ccc(NC(=O)CSc2nc3ccccc3n2C(=O)c2ccccc2)cc1 [Compound 18, 2-(1-Benzoyl-1H-benzo[d]imidazol-2-ylthio)-N-(4-methoxyphenyl)acetamide] | 50 µg/mL (≈ 120 µM) | > 50 µg/mL | > 50 µg/mL | 30 µM (≈ 12.5 µg/mL) | 30 µM (≈ 12.5 µg/mL) | 15 µM (≈ 6.26 µg/mL) | 30 µM (≈ 12.5 µg/mL) | 64.6% | 30 µM (≈ 12.5 µg/mL) | 30 µM (≈ 12.5 µg/mL) | 12.5 µg/mL (≈ 29.9 µM) | > 20 mm | 30 µM (≈ 12.5 µg/mL) | 25 µg/mL (≈ 59.9 µM) | MBC (B. subtilis [2]; [20]): > 50 µg/mL; MBC (B. cereus [5]; [21]): > 50 µg/mL; LD50 [8]: 3.15 mg/kg; MFC (A. niger [10]; [22]): > 50 µg/mL; MFC (C. albicans [11]; [23]): 50 µg/mL (≈ 120 µM) |
| Cc1cccc(NC(=O)CSc2nc3ccccc3n2C(=O)c2ccccc2)c1 [Compound 19, 2-(1-Benzoyl-1H-benzo[d]imidazol-2-ylthio)-N-m-tolylacetamide] | > 50 µg/mL | 50 µg/mL (≈ 125 µM) | > 50 µg/mL | 31 µM (≈ 12.4 µg/mL) | 31 µM (≈ 12.4 µg/mL) | 16 µM (≈ 6.42 µg/mL) | 31 µM (≈ 12.4 µg/mL) | – | 31 µM (≈ 12.4 µg/mL) | 31 µM (≈ 12.4 µg/mL) | – | – | 31 µM (≈ 12.4 µg/mL) | – | MBC (B. subtilis [2]; [24]): 50 µg/mL (≈ 125 µM); MBC (B. cereus [5]; [25]): > 50 µg/mL; MFC (A. niger [10]; [26]): > 50 µg/mL; MFC (C. albicans [11]; [27]): 50 µg/mL (≈ 125 µM) |
| Cc1ccc(NC(=O)CSc2nc3ccccc3n2C(=O)c2ccccc2)c(C)c1 [Compound 20, 2-(1-Benzoyl-1H-benzo[d]imidazol-2-ylthio)-N-(2,4-dimethylphenyl)acetamide] | > 50 µg/mL | 50 µg/mL (≈ 120 µM) | 50 µg/mL (≈ 120 µM) | 30 µM (≈ 12.5 µg/mL) | 30 µM (≈ 12.5 µg/mL) | 15 µM (≈ 6.23 µg/mL) | 30 µM (≈ 12.5 µg/mL) | – | 30 µM (≈ 12.5 µg/mL) | 30 µM (≈ 12.5 µg/mL) | 15 µg/mL (≈ 36.1 µM) | 10 mm | 30 µM (≈ 12.5 µg/mL) | 28 µg/mL (≈ 67.4 µM) | MBC (B. subtilis [2]; [24]): 50 µg/mL (≈ 120 µM); MBC (B. cereus [5]; [25]): > 50 µg/mL; MFC (A. niger [10]; [26]): > 50 µg/mL; MFC (C. albicans [11]; [27]): 25 µg/mL (≈ 60.2 µM) |
| OC(Cn1cncn1)(Cn1cncn1)c1ccc(F)cc1F [Fluconazole, reference compound] | – | – | – | – | – | 470 µM (≈ 144 µg/mL) | – | – | – | – | – | – | 470 µM (≈ 144 µg/mL) | – | – |
| [H]/N=C(/N)N[C@H]1[C@H](O)[C@@H](O)[C@H](O[C@@H]2O[C@@H](C)[C@](O)(C=O)[C@H]2O[C@@H]2O[C@@H](CO)[C@H](O)[C@@H](O)[C@@H]2NC)[C@@H](N/C(N)=N\[H])[C@@H]1O [Streptomycin sulphate, streptomycin sulphate, reference compound] | – | – | – | – | – | – | – | 75.1% | – | – | – | – | – | – | – |
| [H]/N=C(/N)N[C@H]1[C@H](O)[C@@H](O)[C@H](O[C@@H]2O[C@@H](C)[C@](O)(C=O)[C@H]2O[C@@H]2O[C@@H](CO)[C@H](O)[C@@H](O)[C@@H]2NC)[C@@H](N/C(N)=N\[H])[C@@H]1O [Streptomycin, reference compound] | – | – | – | – | – | – | – | – | – | – | 12.5 µg/mL (≈ 21.5 µM) | > 20 mm | – | 25 µg/mL (≈ 43 µM) | – |
